Laboratory results as given in US9670250B2, “Alpha-helical peptidomimetic inhibitors and methods using same” (The Trustees of the University of Pennsylvania, priority 2012, dated 2017).
Blank lines part the entries; values can stand above or below the compound they belong to. Starred links: 1 amine or outer side, 2 acyl side, 3 side chain; linkers in the order of their positions; H or OH if unused. Positions of bridges follow the written chain, without caps; N, C: chain ends. Residues, ends and D or L forms follow the SMILES beside them. mXylylene = c1cc(C[*:1])cc(C[*:2])c1

Key:
Cathepsin L = Cathepsin L (Homo sapiens, UniProt P07711); assay: in vitro fluorescence-based protease inhibition assay, cathepsin L; type: biochemical
Text: (§1) Thus, the present invention includes a series of potent and highly specific α-helical inhibitors for papain family cysteine proteases. […] These short α-helical peptidomimetic inhibitors are modeled after the natural pro-domain sequence but contain a cysteine substitution at specific residues in i,i+4 positions, as shown in FIG. 2B. These cysteine residues are used for stabilization of the helix utilizing an appropriate linker (Muppidi, et al., 2011, Chem Commun (Camb) 47:9396-9398). After synthesis, each inhibitor was tested against its respective protease using an in vitro fluorescence-based assay. For each enzyme, at least one inhibitor was identified that is relatively potent and highly specific for its individual protease. These inhibitors can be modified or otherwise optimized to attain higher potency and selectivity through identification of key interactions between the inhibitor and the active site amino acid residues. Such optimization involves visual examination of the protease crystal structure, and substitution with either non-natural or natural amino acids to exploit possible crucial non-covalent protein ligand interactions, such as hydrogen bond, electrostatic, hydrophobic, and Van der Waals interactions.

Cathepsin K [1] = target: T1, Cathepsin K (Homo sapiens, UniProt P43235); assay: in vitro fluorescence-based protease inhibition assay, cathepsin K; type: biochemical
T1 sequence (P43235 115-329): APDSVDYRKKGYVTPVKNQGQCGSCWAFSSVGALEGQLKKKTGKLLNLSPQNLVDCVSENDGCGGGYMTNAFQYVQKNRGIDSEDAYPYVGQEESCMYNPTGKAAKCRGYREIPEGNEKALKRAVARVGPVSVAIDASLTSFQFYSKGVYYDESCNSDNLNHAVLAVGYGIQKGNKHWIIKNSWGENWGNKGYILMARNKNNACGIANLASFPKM
Text: as §1

Cathepsin S [2] = target: T2, Cathepsin S (Homo sapiens, UniProt P25774); assay: in vitro fluorescence-based protease inhibition assay, cathepsin S; type: biochemical
Text: as §1
Target sequence in this assay (P25774 115-331, species assumed): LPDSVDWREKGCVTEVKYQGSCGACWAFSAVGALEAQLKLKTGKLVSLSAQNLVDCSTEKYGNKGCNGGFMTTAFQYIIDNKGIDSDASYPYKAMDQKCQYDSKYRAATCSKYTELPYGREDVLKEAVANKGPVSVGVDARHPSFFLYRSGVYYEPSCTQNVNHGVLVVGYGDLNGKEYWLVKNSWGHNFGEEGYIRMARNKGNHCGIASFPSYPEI

Cathepsin K [3] = target: Cathepsin K (Homo sapiens, UniProt P43235); assay: Ki (µM) (Cathepsin K)
Text: (§2) Table printed on a drawing sheet, FIGURES 2A & 2B
Head of the field: Ki (µM) (Cathepsin K)
(§3) The patent's description of the figure: FIG. 2, comprising FIGS. 2A-2C, illustrate inhibitors of the present invention. FIG. 2A depicts a list of parent and lead cysteine protease inhibitors and their Ki values The bold ‘C’ represents the cysteine linked at the i,i+4 position. […] FIG. 2B is a schematic representation of linked helical peptidomimetics. α,α′-Dibromo-meta-xylene is the i,i+4 linker. FIG. 2C illustrates circular dichroism spectra of unlinked (middle) and linked (right) peptidomimetics (key at left) in 50 mM Tris-HCl buffer (pH 7.5) and 40% trifluoroethanol (TFE). α-Helical stabilization substantially increases helicity in solution.
(§4) First copying reader's note: Bold C residues and underlined sequences mark the linked (stapled) peptides; the meanings of N/A and NT are not printed on the sheet.
Where the first naming reader finds the target: head: Ki (µM) (Cathepsin K)

Calpain (Calpain-1) = target: T3, Calpain (Calpain-1) (Homo sapiens, UniProt P07384); assay: in vitro fluorescence-based protease inhibition assay, calpain; type: biochemical
T3 sequence (P07384 1-714): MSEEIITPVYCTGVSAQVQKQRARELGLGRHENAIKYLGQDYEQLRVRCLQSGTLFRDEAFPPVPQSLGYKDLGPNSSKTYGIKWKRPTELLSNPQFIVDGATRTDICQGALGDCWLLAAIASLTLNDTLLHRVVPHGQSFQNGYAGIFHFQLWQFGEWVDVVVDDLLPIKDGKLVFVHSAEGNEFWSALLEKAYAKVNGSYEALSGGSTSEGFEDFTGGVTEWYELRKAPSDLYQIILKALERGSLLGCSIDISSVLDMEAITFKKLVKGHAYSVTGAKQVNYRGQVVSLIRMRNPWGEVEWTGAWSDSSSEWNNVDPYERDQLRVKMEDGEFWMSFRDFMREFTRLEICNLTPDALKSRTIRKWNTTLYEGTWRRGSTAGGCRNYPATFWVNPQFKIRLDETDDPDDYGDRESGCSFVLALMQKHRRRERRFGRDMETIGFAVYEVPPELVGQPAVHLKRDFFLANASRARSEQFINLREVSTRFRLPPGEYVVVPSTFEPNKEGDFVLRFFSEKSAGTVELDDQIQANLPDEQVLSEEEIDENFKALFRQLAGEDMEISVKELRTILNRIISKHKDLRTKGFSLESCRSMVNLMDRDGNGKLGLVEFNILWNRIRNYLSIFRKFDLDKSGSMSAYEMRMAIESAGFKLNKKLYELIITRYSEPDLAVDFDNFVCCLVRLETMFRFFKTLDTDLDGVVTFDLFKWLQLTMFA
T3 sequence (P04632 1-268 partner): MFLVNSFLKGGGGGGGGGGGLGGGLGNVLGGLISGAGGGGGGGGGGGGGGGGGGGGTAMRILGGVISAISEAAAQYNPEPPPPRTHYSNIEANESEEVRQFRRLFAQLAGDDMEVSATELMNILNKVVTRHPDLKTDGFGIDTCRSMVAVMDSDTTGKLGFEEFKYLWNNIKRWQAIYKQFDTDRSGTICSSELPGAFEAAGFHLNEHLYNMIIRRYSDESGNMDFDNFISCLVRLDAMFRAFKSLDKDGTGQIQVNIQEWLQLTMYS
Text: as §1

Cathepsin S [4] = target: T2, Cathepsin S; assay: Ki (µM) (Cathepsin S)
Text: as §2
Target sequence in this assay (P25774 115-331 limits assumed): as the sequence (P25774 115-331, species assumed) above
Head of the field: Ki (µM) (Cathepsin S)
as §3, §4
Where the first naming reader finds the target: head: Ki (µM) (Cathepsin S)

Calpain-1 = Calpain-1 (Homo sapiens, UniProt P07384); assay: Ki (µM) (Calpain)
Text: as §2
Head of the field: Ki (µM) (Calpain)
as §3, §4

[5] = Table 3, cathepsin K inhibitors
[6] = Table 2, cathepsin S inhibitors

Cathepsin L, sequence (P07711 114-333, species assumed): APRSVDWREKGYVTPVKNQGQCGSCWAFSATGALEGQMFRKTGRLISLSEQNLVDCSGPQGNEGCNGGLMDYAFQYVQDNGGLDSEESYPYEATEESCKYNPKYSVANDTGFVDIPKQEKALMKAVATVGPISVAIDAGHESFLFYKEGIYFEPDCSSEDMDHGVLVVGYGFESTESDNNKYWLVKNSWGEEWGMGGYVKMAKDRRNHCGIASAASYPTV

effect on cathepsin K (inhibition or activation), in words (Cathepsin K [1]): did not inhibit
cathepsin S inhibitory activity, in words (Cathepsin S [2]): increased inhibition
Compound: TSEEVCSLMCS [SEQ ID NO:16]
potency on cathepsin L over cathepsin S, in words (Cathepsin L): much more potent inhibitor of cathepsin L over cathepsin S

Ki (Cathepsin K [3]): > 100 µM
Compound: CSCC[C@H](NC(=O)[C@H](CCCCN)NC(=O)[C@H](CCC(N)=O)NC(=O)[C@@H](NC(=O)[C@@H](NC(=O)[C@H](CCC(=O)O)NC(=O)[C@H](CCC(=O)O)NC(=O)[C@@H](N)CO)C(C)C)C(C)C)C(=O)N[C@H](C(=O)NCC(=O)N[C@@H](CC(C)C)C(=O)O)[C@@H](C)O [SEQ ID NO:32, SEEVVQKMTGL] (H-SEEVVQKMTGL-OH; N-terminus and C-terminus assumed)

Ki (Cathepsin L; Table 4, calpain inhibitors): > 100 µM
Ki (Calpain (Calpain-1); Table 4, calpain inhibitors): 3.6 ± 1.7 µM
Ki (Cathepsin K [1]; Table 4, calpain inhibitors): > 100 µM
Compound: CC[C@H](C)[C@H](NC(=O)[C@@H](NC(=O)[C@@H](NC(=O)[C@H](CCC(=O)O)NC(=O)[C@H](CCCNC(=N)N)NC(=O)[C@H](CCCCN)NC(=O)CNC(=O)[C@@H](N)CC(C)C)C(C)C)[C@@H](C)O)C(=O)N1CCC[C@H]1C(=O)N1CCC[C@H]1C(=O)N[C@@H](CCCCN)C(=O)N[C@@H](Cc1ccc(O)cc1)C(=O)N[C@H]1CSCc2cccc(c2)CSC[C@@H](C(=O)O)NC(=O)[C@H](CC(C)C)NC(=O)[C@H](CC(C)C)NC(=O)[C@H](CCC(=O)O)NC1=O [compound 67] (H-LGKREVTIPPKYCELLC-OH; linker 13-17 via mXylylene; N-terminus and C-terminus assumed)

specificity for cathepsin S over cathepsin L (Cathepsin S [2]): twice as specific
Compound: TWEWVCSLMCS [SEQ ID NO:23]

Compound: CSCC[C@H](NC(=O)[C@H](CC(C)C)NC(=O)[C@H](CO)NC(=O)[C@H](CC(N)=O)NC(=O)[C@H](CCSC)NC(=O)[C@@H](NC(=O)[C@H](CCC(=O)O)NC(=O)[C@H](CCC(=O)O)NC(=O)[C@H](CO)NC(=O)[C@@H](N)[C@@H](C)O)C(C)C)C(=O)N[C@@H](CO)C(=O)N[C@@H](CO)C(=O)O [SEQ ID NO:14, TSEEVMNSLMSS, reference compound] (H-TSEEVMNSLMSS-OH)
cathepsin S inhibitory activity, in words (Cathepsin S [2]): did not demonstrate any intrinsic inhibitory activity

Ki (Cathepsin S [4]): > 100 µM
Compound: CSCC[C@H](NC(=O)[C@H](CC(C)C)NC(=O)[C@H](CO)NC(=O)[C@H](CC(N)=O)NC(=O)[C@H](CCSC)NC(=O)[C@@H](NC(=O)[C@H](CCC(=O)O)NC(=O)[C@H](CCC(=O)O)NC(=O)[C@H](CO)NC(=O)[C@@H](N)[C@@H](C)O)C(C)C)C(=O)N[C@@H](CO)C(=O)N[C@@H](CO)C(=O)O [SEQ ID NO:14, TSEEVMNSLMSS] (H-TSEEVMNSLMSS-OH; N-terminus and C-terminus assumed)

Ki (Calpain-1): > 100 µM
Compound: CC[C@H](C)[C@H](N)C(=O)N1CCC[C@H]1C(=O)N1CCC[C@H]1C(=O)N[C@@H](CCCCN)C(=O)N[C@@H](Cc1ccc(O)cc1)C(=O)N[C@@H](CCCNC(=N)N)C(=O)N[C@@H](CCC(=O)O)C(=O)N[C@@H](CC(C)C)C(=O)N[C@@H](CC(C)C)C(=O)N[C@@H](C)C(=O)O [SEQ ID NO:62, IPPKYRELLA] (H-IPPKYRELLA-OH; N-terminus and C-terminus assumed)

Ki (Cathepsin L; [5]): > 100 µM
Ki (Calpain (Calpain-1); [5]): > 100 µM
Ki (Cathepsin K [1]; [5]): > 100 µM
Compound: CSCC[C@H](NC(=O)[C@H](CCCCN)NC(=O)[C@@H]1CSCc2cccc(c2)CSC[C@H](NC(=O)[C@@H](N)CO)C(=O)N[C@@H](CCC(=O)O)C(=O)N[C@@H](CO)C(=O)N[C@@H](C(C)C)C(=O)N1)C(=O)N[C@H](C(=O)NCC(=O)N[C@@H](CC(C)C)C(=O)O)[C@@H](C)O [compound 37] (H-SCESVCKMTGL-OH; linker 2-6 via mXylylene; N-terminus and C-terminus assumed)

Ki (Cathepsin L; [6]): 57.1 ± 1.24 µM
Ki (Calpain (Calpain-1); [6]): > 100 µM
Ki (Cathepsin K [1]; [6]): > 100 µM
Compound: CSCC[C@@H]1NC(=O)[C@H](CC(C)C)NC(=O)[C@H](CO)NC(=O)[C@@H](NC(=O)[C@@H](NC(=O)[C@H](Cc2c[nH]c3ccccc23)NC(=O)[C@H](CCC(=O)O)NC(=O)[C@H](CO)NC(=O)[C@@H](N)[C@@H](C)O)C(C)C)CSCc2cccc(c2)CSC[C@@H](C(=O)N[C@@H](CO)C(=O)O)NC1=O [compound 20] (H-TSEWVCSLMCS-OH; linker 6-10 via mXylylene; N-terminus and C-terminus assumed)
